Assays:
Mus musculus [1] = experiment: In vivo biodistribution in NMRI (Naval Medical Research Institute) mice blood at the dose of 0.15-0.2 nmol at 60 min; type: ADME, organism-based; conditions: 1 h
Mus musculus [2] = experiment: In vivo biodistribution in NMRI (Naval Medical Research Institute) mice bone at the dose of 0.15-0.2 nmol at 10 min; type: ADME, organism-based, Bone element
Mus musculus [3] = experiment: In vivo biodistribution in NMRI (Naval Medical Research Institute) mice lung at the dose of 0.15-0.2 nmol at 20 min; type: ADME, organism-based
Mus musculus [4] = experiment: In vivo biodistribution in NMRI (Naval Medical Research Institute) mice lung at the dose of 0.15-0.2 nmol at 2 min; type: ADME, organism-based
Mus musculus [5] = experiment: In vivo biodistribution in NMRI (Naval Medical Research Institute) mice lung at the dose of 0.15-0.2 nmol at 40 min; type: ADME, organism-based
Mus musculus [6] = experiment: In vivo biodistribution in NMRI (Naval Medical Research Institute) mice lung at the dose of 0.15-0.2 nmol at 5 min; type: ADME, organism-based
Mus musculus [7] = experiment: In vivo biodistribution in NMRI (Naval Medical Research Institute) mice lung at the dose of 0.15-0.2 nmol at 60 min; type: ADME, organism-based; conditions: 1 h
Mus musculus [8] = experiment: In vivo biodistribution in NMRI (Naval Medical Research Institute) mice pancreas at the dose of 0.15-0.2 nmol at 10 min; type: ADME, organism-based
Mus musculus [9] = experiment: In vivo biodistribution in NMRI (Naval Medical Research Institute) mice pancreas at the dose of 0.15-0.2 nmol at 2 min; type: ADME, organism-based
Mus musculus [10] = experiment: In vivo biodistribution in NMRI (Naval Medical Research Institute) mice pancreas at the dose of 0.15-0.2 nmol at 40 min; type: ADME, organism-based
Mus musculus [11] = experiment: In vivo biodistribution in NMRI (Naval Medical Research Institute) mice pancreas at the dose of 0.15-0.2 nmol at 5 min; type: ADME, organism-based
Mus musculus [12] = experiment: In vivo biodistribution in NMRI (Naval Medical Research Institute) mice pancreas at the dose of 0.15-0.2 nmol at 60 min; type: ADME, organism-based; conditions: 1 h
Mus musculus [13] = experiment: In vivo biodistribution in NMRI (Naval Medical Research Institute) mice pnacreas at the dose of 0.15-0.2 nmol at 20 min; type: ADME, organism-based
Mus musculus [14] = experiment: In vivo biodistribution in NMRI (Naval Medical Research Institute) mice splee nat the dose of 0.15-0.2 nmol at 10 min; type: ADME, organism-based
Mus musculus [15] = experiment: In vivo biodistribution in NMRI (Naval Medical Research Institute) mice spleen at the dose of 0.15-0.2 nmol at 20 min; type: ADME, organism-based
Mus musculus [16] = experiment: In vivo biodistribution in NMRI (Naval Medical Research Institute) mice spleen at the dose of 0.15-0.2 nmol at 2 min; type: ADME, organism-based
Mus musculus [17] = experiment: In vivo biodistribution in NMRI (Naval Medical Research Institute) mice spleen at the dose of 0.15-0.2 nmol at 40 min; type: ADME, organism-based
Mus musculus [18] = experiment: In vivo biodistribution in NMRI (Naval Medical Research Institute) mice spleen at the dose of 0.15-0.2 nmol at 5 min; type: ADME, organism-based
Mus musculus [19] = experiment: In vivo biodistribution in NMRI (Naval Medical Research Institute) mice spleen at the dose of 0.15-0.2 nmol at 60 min; type: ADME, organism-based; conditions: 1 h
Adenosine receptor A1 [20] = biological target: T1, Adenosine receptor A1 (Bos taurus, UniProt P28190); experiment: In vitro binding affinity for Adenosine A1 receptor of bovine cortex
T1 sequence (P28190 whole entry): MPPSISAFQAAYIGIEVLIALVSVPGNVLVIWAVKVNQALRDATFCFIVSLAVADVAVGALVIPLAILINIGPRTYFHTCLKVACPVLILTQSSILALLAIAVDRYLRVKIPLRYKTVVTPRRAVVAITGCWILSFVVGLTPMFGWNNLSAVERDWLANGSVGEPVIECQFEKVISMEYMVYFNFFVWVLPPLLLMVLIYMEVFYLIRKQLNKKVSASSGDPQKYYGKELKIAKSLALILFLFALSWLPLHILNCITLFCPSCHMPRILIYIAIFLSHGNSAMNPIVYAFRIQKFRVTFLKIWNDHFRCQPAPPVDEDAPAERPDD

Mus musculus [21] = experiment: In vivo biodistribution in NMRI (Naval Medical Research Institute) mice liver at the dose of 0.15-0.2 nmol at 10 min; type: ADME, organism-based
Mus musculus [22] = experiment: In vivo biodistribution in NMRI (Naval Medical Research Institute) mice liver at the dose of 0.15-0.2 nmol at 20 min; type: ADME, organism-based
Mus musculus [23] = experiment: In vivo biodistribution in NMRI (Naval Medical Research Institute) mice liver at the dose of 0.15-0.2 nmol at 2 min; type: ADME, organism-based
Mus musculus [24] = experiment: In vivo biodistribution in NMRI (Naval Medical Research Institute) mice liver at the dose of 0.15-0.2 nmol at 40 min; type: ADME, organism-based
Mus musculus [25] = experiment: In vivo biodistribution in NMRI (Naval Medical Research Institute) mice liver at the dose of 0.15-0.2 nmol at 5 min; type: ADME, organism-based
Mus musculus [26] = experiment: In vivo biodistribution in NMRI (Naval Medical Research Institute) mice liver at the dose of 0.15-0.2 nmol at 60 min; type: ADME, organism-based; conditions: 1 h
Mus musculus [27] = experiment: In vivo biodistribution in NMRI (Naval Medical Research Institute) mice lung at the dose of 0.15-0.2 nmol at 10 min; type: ADME, organism-based
Adenosine receptor A2a = Adenosine receptor A2a (Rattus norvegicus, UniProt P30543); experiment: In vitro binding affinity at Adenosine A2A receptor of rat cortex
Mus musculus [28] = experiment: In vivo biodistribution in NMRI (Naval Medical Research Institute) mice blood at the dose of 0.15-0.2 n mol at 2 min; type: ADME, organism-based
Adenosine receptor A1 [29] = biological target: T2, Adenosine receptor A1 (Homo sapiens, UniProt P30542); experiment: In vitro binding affinity for human Adenosine A1 receptor expressed in CHO-K1 cells; type: cell-based
T2 sequence (P30542 whole entry): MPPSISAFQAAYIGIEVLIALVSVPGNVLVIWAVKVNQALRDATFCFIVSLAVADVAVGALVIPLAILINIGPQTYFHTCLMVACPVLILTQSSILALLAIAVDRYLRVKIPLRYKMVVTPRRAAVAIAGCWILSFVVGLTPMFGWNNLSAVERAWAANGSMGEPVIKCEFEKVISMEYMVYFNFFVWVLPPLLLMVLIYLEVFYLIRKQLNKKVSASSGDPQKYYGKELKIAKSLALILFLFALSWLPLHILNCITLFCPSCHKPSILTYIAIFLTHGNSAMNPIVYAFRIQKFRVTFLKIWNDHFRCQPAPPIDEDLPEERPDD

Adenosine receptor A1 [30] = biological target: T3, Adenosine receptor A1 (Rattus norvegicus, UniProt P25099); experiment: In vitro binding affinity at rat Adenosine A1 receptor
T3 sequence (P25099 whole entry): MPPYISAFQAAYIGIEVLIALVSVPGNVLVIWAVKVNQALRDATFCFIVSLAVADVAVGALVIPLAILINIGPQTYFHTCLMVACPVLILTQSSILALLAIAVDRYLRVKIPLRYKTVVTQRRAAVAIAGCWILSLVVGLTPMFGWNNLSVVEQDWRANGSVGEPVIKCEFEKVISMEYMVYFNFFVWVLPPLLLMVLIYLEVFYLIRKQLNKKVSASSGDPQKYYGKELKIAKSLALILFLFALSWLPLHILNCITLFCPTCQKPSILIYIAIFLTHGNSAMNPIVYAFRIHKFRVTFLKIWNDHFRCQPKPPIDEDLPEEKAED

[31] = Ultrafiltration in human plasma; type: functional
Mus musculus [32] = experiment: In vivo biodistribution in NMRI (Naval Medical Research Institute) mice bone at the dose of 0.15-0.2 nmol at 20 min; type: ADME, organism-based, Bone element

Sequence of Adenosine receptor A2a (P30543 whole entry): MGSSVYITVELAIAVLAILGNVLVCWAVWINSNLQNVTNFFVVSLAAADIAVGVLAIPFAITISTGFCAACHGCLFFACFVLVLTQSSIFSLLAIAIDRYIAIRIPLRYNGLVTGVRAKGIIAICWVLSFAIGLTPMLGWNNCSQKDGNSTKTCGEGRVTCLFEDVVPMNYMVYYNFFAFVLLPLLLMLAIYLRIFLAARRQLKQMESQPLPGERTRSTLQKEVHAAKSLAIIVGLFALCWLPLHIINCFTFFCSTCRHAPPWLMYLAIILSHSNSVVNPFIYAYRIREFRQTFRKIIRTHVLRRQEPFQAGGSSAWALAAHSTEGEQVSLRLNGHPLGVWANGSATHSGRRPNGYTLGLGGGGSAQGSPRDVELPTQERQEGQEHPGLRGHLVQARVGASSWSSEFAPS

CCCn1c(=O)c2nc(C3CCCC3)[nH]c2n(CCC[18F])c1=O
ID/g (Mus musculus [1]): 1.55% | ID/g (Mus musculus [2]): 1.71% | ID/g (Mus musculus [3]): 5.75% | ID/g (Mus musculus [4]): 5.35% | ID/g (Mus musculus [5]): 5.7% | ID/g (Mus musculus [6]): 4.22% | ID/g (Mus musculus [7]): 2.43% | ID/g (Mus musculus [8]): 4.29% | ID/g (Mus musculus [9]): 3.58% | ID/g (Mus musculus [10]): 3.22% | ID/g (Mus musculus [11]): 3.35% | ID/g (Mus musculus [12]): 1.03% | ID/g (Mus musculus [13]): 4.58% | ID/g (Mus musculus [14]): 1.77% | ID/g (Mus musculus [15]): 1.78% | ID/g (Mus musculus [16]): 2.25% | ID/g (Mus musculus [17]): 1.79% | ID/g (Mus musculus [18]): 1.56% | ID/g (Mus musculus [19]): 0.84% | Ki (Adenosine receptor A1 [20]): 0.18 nM | ID/g (Mus musculus [21]): 8.64% | ID/g (Mus musculus [22]): 9.93% | ID/g (Mus musculus [23]): 9.34% | ID/g (Mus musculus [24]): 9.61% | ID/g (Mus musculus [25]): 7.44% | ID/g (Mus musculus [26]): 4.36% | ID/g (Mus musculus [27]): 5.79% | Ki (Adenosine receptor A2a): 812 nM | ID/g (Mus musculus [28]): 11.2% | Kd (Adenosine receptor A1 [29]): 1.26 nM | Kd (Adenosine receptor A1 [30]): 0.63 nM | Ultrafiltration [31]: 86 | ID/g (Mus musculus [32]): 2.02%
